Experiment [1] concerns MC38/BCMA tumors. The experiment is described as follows: Syngenic MC38/BCMA tumor model in CD3-humanized mice, combination with anti-PD-1 (Example 20). The class given is in vivo, mouse. Particulars: for Average Tumor Size (mm3) ± SEM on Day 3 / Average Tumor Size (mm3) ± SEM on Day 7 / Average Tumor Size (mm3) ± SEM on Day 11 / Average Tumor Size (mm3) ± SEM on Day 14 / Average Tumor Size (mm3) ± SEM on Day 18 / Average Tumor Size (mm3) ± SEM on Day 21 / Average Tumor Size (mm3) ± SEM on Day 24 / Average Tumor Size (mm3) ± SEM on Day 28: doses on days 3, 7, 11. How it is done: (§1) Implantation and measurement of syngenic tumors: C57BL/6 mice that express human CD3deg in place of murine CD3deg (CD3-humanized mice) were subcutaneously implanted with 1×10^6 MC38 colon carcinoma cells that have been engineered to express full-length human BCMA (MC38/BCMA).
(§2) The mice were administered these Abs twice more on days 7 and 11 for a total of three doses, and tumor growth was assessed throughout the experiment.
(§3) Calculation of syngenic tumor growth and inhibition: In order to determine tumor volume by external caliper, the greatest longitudinal diameter (length in mm) and the greatest transverse diameter (width in mm) were determined. Tumor volumes based on caliper measurements were calculated by the formula: Volume (mm^3)=(length× width^2)/2.

The subject of experiment [2] is MC38/BCMA tumors. The experiment is described as follows: Syngenic MC38/BCMA tumor model in CD3-humanized mice, combination with anti-PD-1, second experiment (Example 21). The class given is in vivo, mouse. The method, then:
as §1, §2, §3

The target of experiment [3] is T1, mouse BCMA-MFC (Mus musculus, UniProt O88472).
T1 construct: 30 nM BCMA expressed with C-terminal mFc tag (mouse BCMA-MFC)
The experiment is described as follows: SPR (Biacore 4000) binding kinetics at 25° C. How it is done:
(§4) The CM5 Biacore sensor surface was derivatized by amine coupling with a monoclonal mouse anti-human Fc antibody (GE, #BR-1008-39) to capture purified anti-BCMA mAbs and anti-BCMA×anti-CD3 bispecific mAbs. All Biacore binding studies were performed in a buffer composed of 0.01M HEPES pH 7.4, 0.15M NaCl, 3 mM EDTA, 0.05% v/v Surfactant P20 (HBS-ET running buffer). […] Antigen samples were then injected over the anti-BCMA and anti-BCMA×anti-CD3 bispecific mAbs captured surfaces at a flow rate of 30 μL/minute. Antibody-reagent association was monitored for 5 minutes while dissociation in HBS-ET running buffer was monitored for 10 minutes. All of the binding kinetics experiments were performed at 25° C. Kinetic association (ka) and dissociation (kd) rate constants were determined by fitting the real-time sensorgrams to a 1:1 binding model using Scrubber 2.0c curve fitting software. Binding dissociation equilibrium constants (KD) and dissociative half-lives (t1/2) were calculated from the kinetic rate constants as: […]
Background: SPR reads the build-up and loss of mass on a sensor chip optically.

The target in experiment [4] is T2, human BCMA-MMH (Homo sapiens, UniProt Q02223).
T2 construct: extracellular domain of human BCMA expressed with C-terminal myc-myc-hexahistidine tag (human BCMA-MMH)
The experiment is described as follows: SPR (Biacore 4000) binding kinetics at 25° C. How it is done:
as §4

Experiment [5] deals with monkey BCMA-MFC. The experiment is described as follows: SPR (Biacore 4000) binding kinetics at 25° C. The method, then: as §4
The target of experiment [6] is T3, human BCMA-MFC (Homo sapiens, UniProt Q02223).
T3 construct: extracellular domain of human BCMA expressed with C-terminal mFc tag (human BCMA-MFC)
In words: SPR (Biacore 4000) binding kinetics at 25° C. How it is done:
as §4

In experiment [7] the target is monkey BCMA-MMH. In words: SPR (Biacore 4000) binding kinetics at 25° C. To be noted: for 90 nM mfBCMA.mmh Bind (RU): antibody captured on anti-human Fc. How it is done:
as §4

Where [8] appears, read: bispecific 0.04 mg/kg + second antibody 4 mg/kg.
[9] abbreviates: bispecific 0.24 mg/kg + second antibody 4 mg/kg.
[10] abbreviates: bispecific 0.04 mg/kg + partner antibody 4 mg/kg.
The mark [11] stands for this setting: bispecific 0.4 mg/kg + second antibody 4 mg/kg.

T1 sequence (O88472 with tags, fused parts or gaps): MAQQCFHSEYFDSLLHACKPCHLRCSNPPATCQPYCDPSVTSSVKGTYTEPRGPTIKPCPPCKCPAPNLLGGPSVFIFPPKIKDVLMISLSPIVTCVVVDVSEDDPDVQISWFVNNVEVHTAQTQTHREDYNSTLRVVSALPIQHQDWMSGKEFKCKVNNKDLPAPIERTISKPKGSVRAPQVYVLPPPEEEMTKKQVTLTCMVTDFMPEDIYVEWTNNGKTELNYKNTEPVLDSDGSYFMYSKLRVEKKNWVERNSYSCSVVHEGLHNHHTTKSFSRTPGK
T2 sequence (Q02223 with tags, fused parts or gaps): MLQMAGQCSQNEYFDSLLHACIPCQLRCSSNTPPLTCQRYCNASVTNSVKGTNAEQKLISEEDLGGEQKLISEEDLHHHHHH
monkey BCMA-MFC, sequence (as listed by the source): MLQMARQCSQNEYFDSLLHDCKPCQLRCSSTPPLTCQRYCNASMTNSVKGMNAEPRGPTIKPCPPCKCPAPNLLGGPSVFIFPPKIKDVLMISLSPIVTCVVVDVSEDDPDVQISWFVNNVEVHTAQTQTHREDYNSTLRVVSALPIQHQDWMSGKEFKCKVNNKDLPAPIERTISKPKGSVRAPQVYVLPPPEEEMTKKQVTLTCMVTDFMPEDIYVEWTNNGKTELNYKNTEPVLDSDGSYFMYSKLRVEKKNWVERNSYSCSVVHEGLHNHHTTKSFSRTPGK
monkey BCMA-MMH, sequence (as listed by the source): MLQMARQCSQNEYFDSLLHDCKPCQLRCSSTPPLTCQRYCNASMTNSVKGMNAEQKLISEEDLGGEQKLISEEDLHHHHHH
T3 sequence (Q02223 with tags, fused parts or gaps): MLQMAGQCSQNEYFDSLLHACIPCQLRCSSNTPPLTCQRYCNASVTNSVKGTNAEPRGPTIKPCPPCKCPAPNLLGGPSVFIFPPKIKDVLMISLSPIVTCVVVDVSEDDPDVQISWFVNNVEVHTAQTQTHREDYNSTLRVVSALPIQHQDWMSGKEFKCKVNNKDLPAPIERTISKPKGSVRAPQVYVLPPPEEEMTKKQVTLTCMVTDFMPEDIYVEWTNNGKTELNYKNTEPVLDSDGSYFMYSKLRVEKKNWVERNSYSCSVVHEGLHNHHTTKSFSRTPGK

On to “REGN5458 + Isotype: combination of REGN5458 with isotype control Ab (Clone 2A3)”, for which, in experiment [1] (setting [8]), the “Average Tumor Size (mm3) ± SEM on Day 3” value is 15.62 ± 1.61 mm3, the “Average Tumor Size (mm3) ± SEM on Day 7” value stood at 37.98 ± 3.93 mm3, the “Average Tumor Size (mm3) ± SEM on Day 11” value is on record as 112.53 ± 17.39 mm3 and the “Average Tumor Size (mm3) ± SEM on Day 14” value amounted to 438.16 ± 59.56 mm3. Also, in experiment [1] (setting [8]), the “Average Tumor Size (mm3) ± SEM on Day 18” value came out at 1040.12 ± 61.95 mm3, the “Average Tumor Size (mm3) ± SEM on Day 21” value was 2133.12 ± 129.26 mm3, the “Average Tumor Size (mm3) ± SEM on Day 24” value was 3648.37 ± 536.71 mm3 and the “Average Tumor Size (mm3) ± SEM on Day 28” value is on record as “All Animals Euthanized”. Moreover, in experiment [1] (setting [9]), the “Average Tumor Size (mm3) ± SEM on Day 3” value turned out to be 13.13 ± 3.12 mm3, the “Average Tumor Size (mm3) ± SEM on Day 7” value is listed as 29.27 ± 5.00 mm3, the “Average Tumor Size (mm3) ± SEM on Day 11” value was 36.63 ± 14.89 mm3 and the “Average Tumor Size (mm3) ± SEM on Day 14” value stood at 224.33 ± 47.04 mm3. Moreover, in experiment [1] (setting [9]), the “Average Tumor Size (mm3) ± SEM on Day 18” value turned out to be 515.15 ± 115.38 mm3, the “Average Tumor Size (mm3) ± SEM on Day 21” value is reported as 1225.47 ± 289.39 mm3, the “Average Tumor Size (mm3) ± SEM on Day 24” value is 1493.26 ± 973.01 mm3 and the “Average Tumor Size (mm3) ± SEM on Day 28” value is 1371.17 ± 0.00 mm3. Also, the “Number of Mice Tumor-Free at End of Experiment (Day 28)” value in experiment [1] (setting [10]) is 0 of 7. For the same molecule, the “Number of Mice Tumor-Free at End of Experiment (Day 28)” value in experiment [1] (bispecific 0.24 mg/kg + partner antibody 4 mg/kg) was 0 of 6. In addition, in experiment [2] (setting [8]), the “Average Tumor Size (mm3) ± SEM on Day 3” value turned out to be 12.41 ± 2.56 mm3, the “Average Tumor Size (mm3) ± SEM on Day 6” value is on record as 38.79 ± 3.52 mm3, the “Average Tumor Size (mm3) ± SEM on Day 10” value is on record as 116.32 ± 19.99 mm3 and the “Average Tumor Size (mm3) ± SEM on Day 13” value is on record as 319.91 ± 53.05 mm3. Further, in experiment [2] (setting [8]), the “Average Tumor Size (mm3) ± SEM on Day 18” value came out at 1314.27 ± 211.22 mm3, the “Average Tumor Size (mm3) ± SEM on Day 21” value was found to be 2446.35 ± 395.48 mm3 and the “Average Tumor Size (mm3) ± SEM on Day 25” value was determined as 2411.64 ± 451.96 mm3. Besides, in experiment [2] (setting [11]), the “Average Tumor Size (mm3) ± SEM on Day 3” value is 11.22 ± 0.68 mm3, the “Average Tumor Size (mm3) ± SEM on Day 6” value amounted to 16.11 ± 1.27 mm3, the “Average Tumor Size (mm3) ± SEM on Day 10” value was found to be 24.27 ± 6.74 mm3 and the “Average Tumor Size (mm3) ± SEM on Day 13” value was 50.93 ± 20.00 mm3. In experiment [2] (setting [11]), the “Average Tumor Size (mm3) ± SEM on Day 18” value worked out at 248.51 ± 107.21 mm3, the “Average Tumor Size (mm3) ± SEM on Day 21” value stood at 453.43 ± 174.75 mm3 and the “Average Tumor Size (mm3) ± SEM on Day 25” value is on record as 661.70 ± 331.60 mm3. In addition, in experiment [2] (setting [10]), the “Number of Mice Tumor-Free at End of Experiment (Day 25)” value is on record as 0 of 10. The “Number of Mice Tumor-Free at End of Experiment (Day 25)” value in experiment [2] (bispecific 0.4 mg/kg + partner antibody 4 mg/kg) is 2 of 10.

B1: mAb16711: anti-BCMA antibody, HCVR/LCVR SEQ ID NOs 2/10 (antibody, V domains shown)
VH: QVQLVESGGGVVQPGRSLRLSCAASGFTFSTYGIHWVRQAPGKGLEWVAVILHDGSSNYYAESVKGRFIISRDNSKNTLYLQMNSLRAEDTALYYCTKRYSEAAGPNWFDPWGQGTLVTVSS
VL: DIQMTQSPSSVSASVGDRVTITCRASRGISSWLAWYQQKPGKAPKLLIHAASSLQSGVPSRFSGSGSGTDFTLTISSLQPEDFATYYCQQAISFPFTFGPGTKVDIK
For B1, the results for the “ka” value in experiment [3], in experiment [4] and in experiment [6] were 1.07e+06 M⁻¹ s⁻¹, 2.01e+06 M⁻¹ s⁻¹ and 1.85e+06 M⁻¹ s⁻¹, respectively. Besides, the figures for the “kd” value in experiment [3], in experiment [4] and in experiment [6] were 0.0011 s⁻¹, 0.00347 s⁻¹ and 0.00019 s⁻¹, respectively. Moreover, in experiment [5], the Kd is > 30 nM.

B2: REGN4514: anti-BCMA antibody, HCVR/LCVR SEQ ID NOs 34/42 (antibody, V domains shown)
VH: EVQLVESGGGLVQPGRSLRLSCAASGFTFDDYAMHWVRQAPGKGLEWVSGISWNSGNMGYADSVKGRFTISRDNAKNSLFLQMHSLRAEDTAFYYCAKVRLTAFDFWGQGTLVTVSS
VL: DIQMTQSPSSLSASVGDRVTITCRTSQSIGNYLNWFQQKPGKAPKLLIYTASSLQNGVPSRFTGSGSGTDFTLTISSLQPEDFVIYYCQQSFSTPYTFGQGTKLEIK
In the case of B2, the “ka” value in experiment [3] turned out to be 397000 M⁻¹ s⁻¹; in experiment [4], 1.06e+06 M⁻¹ s⁻¹; in experiment [5], 492000 M⁻¹ s⁻¹; in experiment [6], 1.07e+06 M⁻¹ s⁻¹. Further, the “kd” value in experiment [3] was 0.000269 s⁻¹; in experiment [4], 0.00285 s⁻¹; in experiment [5], 0.00724 s⁻¹; in experiment [6], 4.53e-05 s⁻¹. In experiment [7], the Kd was > 90 nM. Moreover, in experiment [7], the “90 nM mfBCMA.mmh Bind (RU)” value turned out to be 1.1 RU.

B3: REGN4515: anti-BCMA antibody, HCVR/LCVR SEQ ID NOs 50/58 (antibody, V domains shown)
VH: QVQLVESGGGLVKPGGSLRLSCAASGFTFSDYYISWIRQAPGKGLEWVSYISSSGSSIKYADSVKGRFTISRDNAKNSLYLQMNSLRAEDTAVYYCAREGGNYGMDVWGQGTTVTVSS
VL: DIQMTQSPSSVSASVGDRVTITCRASQGINNWLVWYQQKPGKAPKLLIYAATSLQSGVPSRFSGSGSGTDFTLTISSLQPEDFATYYCQQANSFPPTFGQGTKLEIK
Consider B3, for which the “ka” value in experiment [3] came out at 947000 M⁻¹ s⁻¹; in experiment [4] it was 869000 M⁻¹ s⁻¹; in experiment [5], 2.13e+06 M⁻¹ s⁻¹; in experiment [6] it was 1.41e+06 M⁻¹ s⁻¹. The “kd” value in experiment [3] stood at 0.00418 s⁻¹; in experiment [4] it was 0.00247 s⁻¹; in experiment [5] it was 0.00716 s⁻¹; in experiment [6], 8.95e-05 s⁻¹. For the same molecule, the Kd in experiment [7] was > 90 nM. In addition, in experiment [7], the “90 nM mfBCMA.mmh Bind (RU)” value was 1.9 RU.

One may read the Kd as the concentration at which binding is half-saturated.

The values above are taken from patent US11919965B2, “Methods of treating multiple myeloma with bispecific anti-BCMA x anti-CD3 antibodies” (Regeneron Pharmaceuticals, Inc., priority 2019, dated 2024).
